Measured values taken from publication PMC3358306 (PLoS ONE, 2012).

Biological target: T1, afRio1 (Rio1 kinase) (Archaeoglobus fulgidus, UniProt O28471)
T1 construct: full-length
Experiment: thermal shift (Thermofluor), Tm […] to […] °C
Format: binding

T1 sequence (O28471 whole entry): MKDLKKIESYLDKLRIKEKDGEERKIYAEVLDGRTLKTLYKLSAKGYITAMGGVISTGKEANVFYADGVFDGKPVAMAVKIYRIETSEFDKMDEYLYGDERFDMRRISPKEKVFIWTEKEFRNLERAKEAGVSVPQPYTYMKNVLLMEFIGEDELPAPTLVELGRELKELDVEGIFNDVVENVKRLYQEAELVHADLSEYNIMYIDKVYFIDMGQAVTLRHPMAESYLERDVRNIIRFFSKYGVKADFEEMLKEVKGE

For NC(=O)c1cn([C@@H]2O[C@H](CO)[C@@H](O)[C@H]2O)c2ncnc(N)c12 [sangivamycin], the “thermal shift (Thermofluor), Tm 76 to 82 °C” value was 82 °C.
